According to ChEMBL document CHEMBL5728748 (2021):

Experiment: TarO Biochemical Enzymatic Assay: The TarO biochemical enzymatic assay is a liquid chromatography-mass spectroscopy (LC-MS) based end point assay that measures C55-P-P-GlcNAc (LIPID III) production. The TarO biochemical enzymatic assay was performed in a 384-well microtiter plate (Labcyte) with a reaction volume of 20 μl. The reaction mix contained 0.1 μgs/μl of TarO membrane preparation derived from MRSA COL (lysostaphin/lysozyme treated, centrifuged at 40K rpm, and re-suspended in 50 mM Tris pH 7.5, 10 mM MgCl2), 1500 μM UDP-GlcNAc, x 75 μM C55-P substrates in 83 mM Tris pH 8.0, 6.7 mM MgCl2, 6 mM CHAPS, and 8.3% DMSO buffer. The enzyme reactions were quenched by extraction in 40 μl of 1-pentanol containing 0.04 μM […] C55-PP-GlcNAc, which was used as an internal standard. A 10 μl volume of the quenched reaction mixture (pH≈3) from each well was injected onto a reversed-phase column (C4, 5 m, 2.1×50 mm, Thermo Scientific Biobacis-4) and eluted using a NH4Ac/H2O/MeOH gradient (solvent A: 10 mM NH4Ac in water, pH 5.6; solvent B: NH4Ac (1 M)-Isopropanol (1:90, v/v, pH 5.6). The HPLC conditions were as follows: 15% solvent B for 15 seconds followed by a gradient to 90% solvent B in 90 seconds; then solvent B was kept at 95% for 10 seconds followed by a gradient to 8% solvent B in 0.1 minute. The column was then equilibrated at 15% B for 1 minute before the next injection. The flow rate was kept constant at 600 μl/minute. Mass spectrometric detection was carried out in the negative-ion mode using selected reaction monitoring (SRM). Typical mass spectrometric conditions were as follows: heated capillary temperature, 210° C.; spray voltage, 2500 V; desolvation gas (N2), 40 l/h; auxiliary gas (N2), 35 l/h. Selected ion current (SIC) chromatograms of C55-PP-GlcNAc and internal standard 15C C55-PP-GlcNAc were plotted and integrated using LCQuan incorporated in Xcalibur software (ThermoFinnigan). The linearity of C55-PP-GlcNAc concentration versus mass spectrometric signal (AC55-PP-GlcNAc/A15C-C55-PP-GlcNAc) was determined with purified C55-PP-GlcNAc. The IC50 values were calculated using the nonlinear regression analysis (sigmoidal dose response fit allowing for a variable slope) of percent inhibition data with minimum and maximum values set to 0 and 100 percent.

C[C@H]1[C@@H](c2cc(C(F)(F)F)cc(C(F)(F)F)c2)OC(=O)N1C(=O)NCc1cncc2ccccc12
IC50: 30 nM

C[C@H]1[C@@H](c2cc(F)cc(C(F)(F)F)c2)OC(=O)N1C(=O)NCc1cncc2ccccc12
IC50: 10 nM

O=C(NCc1cncc2ccccc12)N1C(=O)O[C@H](c2cc(F)cc(C(F)(F)F)c2)[C@@H]1CO
IC50: 210 nM

C[C@H]1[C@@H](c2cc(C(F)(F)F)cc(C(F)(F)F)c2)OC(=O)N1C(=O)Cc1cccc2ccccc12
IC50: 130 nM

C[C@H]1[C@@H](c2cccc(C(F)(F)F)c2)OC(=O)N1C(=O)NCc1cncc2ccccc12
IC50: 160 nM

C[C@H]1[C@@H](c2cc(C(F)(F)F)cc(C(F)(F)F)c2)OC(=O)N1C(=O)CCc1cccc2ccccc12
IC50: 10 nM

C[C@H]1[C@@H](c2cccc(C(F)(F)F)c2)OC(=O)N1C(=O)NCc1cncc2cccnc12
IC50: 130 nM

C[C@H]1[C@@H](c2cc(C(F)(F)F)cc(C(F)(F)F)c2)OC(=O)N1C(=O)CCc1cncc2ccccc12
IC50: 10 nM

COc1cc(C(F)(F)F)cc([C@H]2OC(=O)N(C(=O)NCc3cncc4cccnc34)[C@H]2CO)n1
IC50: 880 nM

C[C@H]1[C@@H](c2cc(C(F)(F)F)cc(C(F)(F)F)c2)OC(=O)N1C(=O)NCc1cncc2cccnc12
IC50: 10 nM

O=C(NCc1cncc2cccnc12)N1C(=O)O[C@H](c2cc(C(F)(F)F)cc(C(F)(F)F)c2)[C@@H]1CO
IC50: 140 nM

C[C@H]1[C@@H](c2cc(F)cc(C(F)(F)F)c2)OC(=O)N1C(=O)NCc1cnc2sccn12
IC50: 77000 nM

O=C(NCc1cccc2cncnc12)N1C(=O)O[C@H](c2cc(C(F)(F)F)cc(C(F)(F)F)c2)[C@@H]1CO
IC50: 80 nM

C[C@H]1[C@@H](c2cc(F)cc(C(F)(F)F)c2)OC(=O)N1C(=O)NCc1cccc(N(C)C)c1
IC50: 40 nM

C[C@H]1[C@@H](c2cc(F)cc(C(F)(F)F)c2)OC(=O)N1C(=O)NCc1cccc2cc[nH]c12
IC50: 60 nM

COc1cncc(CNC(=O)N2C(=O)O[C@H](c3cc(C(F)(F)F)cc(C(F)(F)F)c3)[C@@H]2CO)c1OC
IC50: 30 nM

C[C@H]1[C@@H](c2cc(F)cc(Br)c2)OC(=O)N1C(=O)NCc1cncc2ccccc12
IC50: 240 nM

C[C@H]1[C@@H](c2cc(F)cc(C(F)(F)F)c2)OC(=O)N1C(=O)NCc1ccccc1OC(F)F
IC50: 20 nM

C[C@H]1[C@@H](c2cc(F)cc(C(F)(F)F)c2)OC(=O)N1C(=O)NCc1ccccc1C(F)(F)F
IC50: 30 nM

COc1cc([C@H]2OC(=O)N(C(=O)NCc3cccc4nccnc34)[C@H]2CO)cc(C(F)(F)F)c1
IC50: 450 nM

Cc1cc(C)cc([C@H]2OC(=O)N(C(=O)CCc3cncc4ccccc34)[C@H]2C)c1
IC50: 1070 nM

COc1ccncc1CNC(=O)N1C(=O)O[C@H](c2cc(C(F)(F)F)cc(C(F)(F)F)c2)[C@@H]1CO
IC50: 200 nM

C[C@H]1[C@@H](c2cc(C(F)(F)F)cc(C(F)(F)F)c2)OC(=O)N1C(=O)NCC1CCCc2ccccc21 (stereo not given in full)
IC50: 160 nM

C[C@H]1[C@@H](c2cccc(OC(F)(F)F)c2)OC(=O)N1C(=O)CCc1cccc2ccccc12
IC50: 40 nM

C[C@H]1[C@@H](c2cc(C(F)(F)F)cc(C(F)(F)F)c2)OC(=O)N1C(=O)NCc1cccc2ccnn12
IC50: 10 nM

C[C@H]1[C@@H](c2cc(C(F)(F)F)cc(C(F)(F)F)c2)OC(=O)N1C(=O)NCc1cccc2c1OCCO2
IC50: 10 nM

C[C@H]1[C@@H](c2cc(C(F)(F)F)cc(C(F)(F)F)c2)OC(=O)N1C(=O)NCc1ncccc1Br
IC50: 260 nM

COc1cc([C@H]2OC(=O)N(C(=O)NCc3cncc4cccnc34)[C@H]2CO)cc(C(F)(F)F)c1
IC50: 1240 nM

C[C@H]1[C@@H](c2cc(C(F)(F)F)cc(C(F)(F)F)c2)OC(=O)N1C(=O)NCc1cnc2c(c1)CCC2
IC50: 1870 nM

C[C@H]1[C@@H](c2cc(F)cc(C(F)(F)F)c2)OC(=O)N1C(=O)N(O)Cc1cccc2ccccc12
IC50: 7760 nM

Cc1cc([C@H]2OC(=O)N(C(=O)CCc3cccc4cnccc34)[C@H]2C)cc(C(F)(F)F)c1
IC50: 250 nM

C[C@H]1[C@@H](c2cc(C(F)(F)F)cc(C(F)(F)F)c2)OC(=O)N1C(=O)NCc1nccc2ccoc12
IC50: 150 nM

Cc1ccccc1CNC(=O)N1C(=O)O[C@H](c2cc(F)cc(C(F)(F)F)c2)[C@@H]1C
IC50: 140 nM

C[C@H]1[C@@H](c2cc(F)cc(C(F)(F)F)c2)OC(=O)N1C(=O)NCc1cccc2cncnc12
IC50: 340 nM

C[C@H]1[C@@H](c2cc(F)cc(C(F)(F)F)c2)OC(=O)N1C(=O)NCc1ccccc1-n1cccc1
IC50: 450 nM

C[C@H]1[C@@H](c2cc(F)cc(C(F)(F)F)c2)OC(=O)N1C(=O)NCc1cccc2c1C(=O)NC2
IC50: 1690 nM

CCOc1cc([C@H]2OC(=O)N(C(=O)NCc3cccc4cncnc34)[C@H]2C)nc(C(F)(F)F)c1
IC50: 10 nM

C[C@H]1[C@@H](c2cccc(OC(F)(F)F)c2)OC(=O)N1C(=O)CCc1cncc2ccccc12
IC50: 140 nM

C[C@H]1[C@@H](c2cccc(F)c2)OC(=O)N1C(=O)CCc1cncc2ccccc12
IC50: 3000 nM

C[C@H]1[C@@H](c2cc(C(F)(F)F)cc(C(F)(F)F)c2)OC(=O)N1C(=O)NCc1cccnc1N1CCOCC1
IC50: 3610 nM

COc1ccccc1CNC(=O)N1C(=O)O[C@H](c2cc(F)cc(C(F)(F)F)c2)[C@@H]1C
IC50: 30 nM

C[C@H]1[C@@H](c2cc(F)cc(C(F)(F)F)c2)OC(=O)N1C(=O)NCc1cccc2c1OCCO2
IC50: 50 nM

C[C@H]1[C@@H](c2cc(C(F)(F)F)cc(C(F)(F)F)c2)OC(=O)N1C(=O)CCc1cccc2sccc12
IC50: 10 nM

Cc1cccnc1CCNC(=O)N1C(=O)O[C@H](c2cc(C(F)(F)F)cc(C(F)(F)F)c2)[C@@H]1C
IC50: 1780 nM

C[C@H]1[C@@H](c2cc(F)cc(C3CC3)c2)OC(=O)N1C(=O)NCc1cncc2ccccc12
IC50: 240 nM

Cc1nc(C(C)C)sc1CNC(=O)N1C(=O)O[C@H](c2cc(F)cc(C(F)(F)F)c2)[C@@H]1C
IC50: 160 nM

C[C@H]1[C@@H](c2cc(F)cc(C(F)(F)F)c2)OC(=O)N1C(=O)CCc1cncc2ccccc12
IC50: 80 nM

COc1cccnc1CNC(=O)N1C(=O)O[C@H](c2cc(C(F)(F)F)cc(C(F)(F)F)c2)[C@@H]1C
IC50: 910 nM

O=C(CCc1cncc2ccccc12)N1CC(c2cc(C(F)(F)F)cc(C(F)(F)F)c2)OC1=O (stereo not given)
IC50: 420 nM

C[C@H]1[C@@H](c2cc(F)cc(C(F)(F)F)c2)OC(=O)N1C(=O)NCc1cccc2nccnc12
IC50: 190 nM

C[C@H]1[C@@H](c2cc(F)cc(C(F)(F)F)c2)OC(=O)N1C(=O)NCc1ccnc2ccccc12
IC50: 200 nM

C[C@H]1[C@@H](c2cc(F)cc(C(F)(F)F)c2)OC(=O)N1C(=O)NCc1nccc2sccc12
IC50: 120 nM

C[C@H]1[C@@H](c2cc(F)cc(C(F)(F)F)c2)OC(=O)N1C(=O)NCc1ccccc1CN(C)C
IC50: 690 nM

Cc1cccnc1CNC(=O)N1C(=O)O[C@H](c2cc(C(F)(F)F)cc(C(F)(F)F)c2)[C@@H]1C
IC50: 440 nM

C[C@H]1[C@@H](c2cc(C(F)(F)F)cc(C(F)(F)F)c2)OC(=O)N1C(=O)NCc1cccc2nccnc12
IC50: 50 nM

C[C@H]1[C@@H](c2cc(F)c(F)c(F)c2)OC(=O)N1C(=O)CCc1cncc2ccccc12
IC50: 1810 nM

Cc1nc(C)c(CNC(=O)N2C(=O)O[C@H](c3cc(F)cc(C(F)(F)F)c3)[C@@H]2C)s1
IC50: 2650 nM

C[C@H]1[C@@H](c2cc(F)cc(C(F)(F)F)c2)OC(=O)N1C(=O)NCc1ccccc1Cl
IC50: 170 nM

CCOc1ccccc1CNC(=O)N1C(=O)O[C@H](c2cc(F)cc(C(F)(F)F)c2)[C@@H]1C
IC50: 100 nM

C[C@H]1[C@@H](c2cc(C(F)(F)F)cc(C(F)(F)F)c2)OC(=O)N1C(=O)CCc1cccc2ncccc12
IC50: 250 nM

C[C@H]1[C@@H](c2cccc(C(F)F)c2)OC(=O)N1C(=O)NCc1cncc2ccccc12
IC50: 490 nM

COc1cc([C@H]2OC(=O)N(C(=O)NCc3cccc4cncnc34)[C@H]2CO)cc(C(F)(F)F)c1
IC50: 870 nM

C[C@H]1[C@@H](c2cc(F)cc(C(F)(F)F)c2)OC(=O)N1C(=O)NCc1cccc2ccccc12
IC50: 20 nM

COc1ccccc1CNC(=O)N1C(=O)O[C@H](c2cccc(C(F)(F)F)c2)[C@@H]1C
IC50: 220 nM

Cc1cnc(F)c(CNC(=O)N2C(=O)O[C@H](c3cc(C(F)(F)F)cc(C(F)(F)F)c3)[C@@H]2C)c1
IC50: 610 nM

C=CCOc1cc([C@H]2OC(=O)N(C(=O)NCc3cncc4ccccc34)[C@H]2C)nc(C(F)(F)F)c1
IC50: 60 nM

C[C@H]1[C@@H](c2cc(F)cc(C(F)(F)F)c2)OC(=O)N1C(=O)NCc1cccc2cn[nH]c12
IC50: 1420 nM

C[C@H]1[C@@H](c2cccc(C(C)(F)F)c2)OC(=O)N1C(=O)NCc1cncc2ccccc12
IC50: 250 nM

C[C@H]1[C@@H](c2cc(F)cc(C(F)(F)F)c2)OC(=O)N1C(=O)NCc1ccnc2cccnc12
IC50: 540 nM

C[C@H]1[C@@H](c2cc(C(F)(F)F)cc(C(F)(F)F)c2)OC(=O)N1C(=O)CCc1cccc2ccncc12
IC50: 410 nM

COc1cc([C@H]2OC(=O)N(C(=O)NCc3cncc4ccccc34)[C@H]2CO)cc(C(F)(F)F)c1
IC50: 200 nM

C[C@H]1[C@@H](c2cc(F)cc(C(F)(F)F)c2)OC(=O)N1C(=O)NCc1ccccc1[N+](=O)[O-]
IC50: 10 nM

C[C@H]1[C@@H](c2cc(F)cc(C(F)(F)F)c2)OC(=O)N1C(=O)NCc1cccc2ncccc12
IC50: 850 nM

C[C@H]1[C@@H](c2cc(F)cc(C(F)(F)F)c2)OC(=O)N1C(=O)NCc1ccccc1S(C)(=O)=O
IC50: 2970 nM

Cc1cc(F)cc([C@H]2OC(=O)N(C(=O)CCc3cncc4ccccc34)[C@H]2C)c1
IC50: 1880 nM
